Reference: patent publication US20240101552A1, “CARBONYL HETEROCYCLIC COMPOUND AND APPLICATION THEREOF” (SHANGHAI PHARMACEUTICALS HOLDING CO., LTD., priority 2020, published 2024)

Target: LANCL2 (Homo sapiens (Human), UniProt Q9NS86)
Test: SPR (BIACORE S200) kinetic determination of LANCL2-small molecule interactions
Format: binding
Details: for Kd: immobilized LANCL2, 1:1 binding model, pH 6.5, 25° C.; for Rmax (RU): maximum binding force
Method: 1.1 Reagent Materials • Ligand: LANCL2 • Running buffer: 20 mM MES, 150 mM NaCl, 0.05% P20, pH 6.5, 1% DMSO
Injection conditions for small molecule compounds: a flow rate of 30 μL/min, a binding time of 60 s, a dissociation time of 300 s.
Running buffer: 20 mM MES, 150 mM NaCl, 0.05% P20, pH 6.5, 1% DMSO.
Sample chamber temperature: 25° C.; analysis temperature: 25° C.
Kinetic determination of LANCL2-small molecule interactions was performed. The kinetic parameters of small molecules BT-11 and L-1 to 60 (analytes) binding to LANCL2 (ligand) were determined using BIACORE S200. Data were generated in triplicate in a dose-dependent manner (5-8 titration points) and analyzed to determine binding models (Langmuir, conformational shifts, etc.), real-time association and dissociation constants, and equilibrium dissociation constants. SPR technology allows the validation of specific LANCL2-phytochemical interactions as well as an increased insight into the gold standard of binding mechanisms and rates. Experiments were performed on carboxymethyl polydextrose (CM5) sensor chips by amine-coupled covalent attachment of LANCL2. Data were analyzed with BIACORE S200T200 evaluation software (version 1), so as to determine affinity binding constants (KD) using a 1:1 binding model.
An optical technique for detecting molecular interactions, SPR, was used to measure the binding affinity between LANCL2 and a ligand thereof (compound to be tested). Purified recombinant LANCL2 protein was immobilized on a BIACORE sensor chip and small molecules were injected onto the protein surface using an equipment of microfluidic system. The change in total mass on the chip surface, corresponding to a small binding to the protein, was measured. […] The equilibrium dissociation constant (Kd) was often used to describe the affinity between a ligand and a protein, such as affinity degree of a ligand binding to a specific protein. Ligand-protein affinity was affected by non-covalent intermolecular interactions between two molecules, such as hydrogen bonding, electrostatic interactions, hydrophobic bonds and van der Waals forces. The steady-state affinity (Kd) for each interaction could be measured by plotting equilibrium binding levels against compound concentrations.

LANCL2, sequence (Q9NS86 whole entry, species assumed): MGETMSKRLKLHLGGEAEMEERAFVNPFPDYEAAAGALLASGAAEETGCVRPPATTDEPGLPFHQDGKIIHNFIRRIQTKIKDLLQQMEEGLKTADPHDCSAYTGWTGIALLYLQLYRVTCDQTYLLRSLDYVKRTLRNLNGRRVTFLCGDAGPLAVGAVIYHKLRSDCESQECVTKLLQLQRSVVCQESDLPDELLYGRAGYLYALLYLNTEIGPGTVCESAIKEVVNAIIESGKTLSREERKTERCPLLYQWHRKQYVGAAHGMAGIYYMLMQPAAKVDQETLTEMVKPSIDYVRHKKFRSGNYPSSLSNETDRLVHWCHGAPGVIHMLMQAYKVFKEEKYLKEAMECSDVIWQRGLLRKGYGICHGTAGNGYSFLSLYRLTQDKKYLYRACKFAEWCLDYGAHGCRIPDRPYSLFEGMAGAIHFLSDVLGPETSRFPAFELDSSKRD

| Kd [µM] | Rmax (RU) | Compound | binding activity compared with positive reference compound BT-11 |
| --- | --- | --- | --- |
| 2.09 | 5.2 | Cc1ccc(C(=O)N2CCC3(CCN(C(=O)c4cccc(-c5cn6ccccc6n5)c4)CC3)CC2)cc1NC1=CC(=O)c2ccccc2C1=O [Embodiment L-95, 2-((5-(9-(3-(imidazo[1,2-a]pyridin-2-yl)benzoyl)-3,9-diazaspiro[5.5]undecane-3-carbonyl)-2-methylphenyl)amino)naphthalene-1,4-dione] | better binding activities than the positive reference compound BT-11 |
| 23.3 | 5.5 | O=C(N[C@H]1[C@@H]2CN(C(=O)c3cccc(Nc4ccccc4)n3)C[C@@H]21)c1cccc(Nc2ccccc2)n1 [Embodiment L-101] |  |
| 6.93 | 5.3 | O=C(c1cccc(-c2cn3ccccc3n2)c1)N1CCC2(CC1)CCN(C(=O)c1cccc(Nc3ccccc3)n1)CC2 [Embodiment L-72, (9-(3-(imidazo[1,2-a]pyridin-2-yl)benzoyl)-3,9-diazaspiro[5.5]undecan-3-yl)(6-(phenylamino)pyridin-2-yl)methanone] |  |
| 26 | 6.5 | O=C(c1cccc(Nc2ccccc2)n1)N1CCC2(CCN(C(=O)c3cccc(-c4nc5ccccc5[nH]4)n3)C2)C1 [Embodiment L-65, (7-(6-(1H-benzo[d]imidazol-2-yl)picolinoyl)-2,7-diazaspiro[4.4]non-2-yl)(6-(phenylamino)pyridin-2-yl)methanone] |  |
| 1.91 | 2.3 | NC(=O)c1sccc1NC(=O)c1ccc(C(=O)N2CCC3(CC2)CCN(C(=O)c2cccc(-c4cn5ccccc5n4)c2)CC3)cc1 [Embodiment L-96, 3-(4-(9-(3-(imidazo[1,2-a]pyridin-2-yl)benzoyl)-3,9-diazaspiro[5.5]undecane-3-carbonyl)benzamido)thiophene-2-carboxamide] | better binding activities than the positive reference compound BT-11 |
| 23 | 10.5 | O=C(NC1CCN(C(=O)c2ccnc(Nc3ccccc3)n2)CC1)c1cccc(Nc2ccccc2)n1 [Embodiment L-81, 6-(phenylamino)-N-(1-(2-(phenylamino)pyrimidine-4-carbonyl)piperidin-4-yl)picolinamide] |  |
| 26.2 | 15 | O=C(c1cccc(-c2nc3ccccc3[nH]2)n1)N1CCN(C(=O)c2n[nH]c3ccccc23)CC1 [Embodiment L-110, (4-(6-(1H-benzo[d]imidazol-2-yl)picolinoyl)piperazin-1-yl)(1H-indazol-3-yl)methanone] |  |
| 21.7 | 6.1 | O=C(c1cccc(-c2nc3ccccc3[nH]2)n1)N1CC2CN(C(=O)c3ccc4ccccc4n3)CC2C1 [Embodiment L-69, (5-(6-(1H-benzo[d]imidazol-2-yl)picolinoyl)hexahydropyrrolo[3,4-c]pyrrol-2(1H)-yl)(quinolin-2-yl)methanone] |  |
| 25.8 | 0.102 | O=C(c1cccc(-c2cn3ccccc3n2)c1)N1CC2CN(C(=O)c3cccc(-c4cn5ccccc5n4)c3)CC2C1 [Embodiment L-74, (tetrahydropyrrolo[3,4-c]pyrrole-2,5(1H,3H)-diyl)bis((3-(imidazo[1,2-a]pyridin-2-yl)phenyl)methanone)] |  |
| 42.3 | 9.4 | O=C(c1cccc(-c2nc3ccccc3[nH]2)n1)N1CC2CN(C(=O)c3ccnc(Nc4ccc(F)cc4)n3)CC2C1 [Embodiment L-82] |  |
| 27 | 3.2 | Cc1cn(-c2cccc(C(=O)N3CCN(C(=O)c4cccc(-c5nc6ccccc6[nH]5)n4)CC3)c2)cn1 [Embodiment L-117, (4-(6-(1H-benzo[d]imidazol-2-yl)picolinoyl)piperazin-1-yl)(3-(4-methyl-1H-imidazol-1-yl)phenyl)methanone] |  |
| 48.8 | 6.1 | O=C(c1cccc(-c2nc3ccccc3[nH]2)n1)N1CCC2(CCCN(C(=O)c3ccnc(Nc4ccccc4)n3)C2)CC1 [Embodiment L-64, (9-(6-(1H-benzo[d]imidazol-2-yl)picolinoyl)-2,9-diazaspiro[5.5]undecan-2-yl)(2-(phenylamino)pyrimidin-4-yl)methanone] |  |
| 28.4 | 8.5 | O=C(c1cccc(Nc2ccccc2)n1)N1CCC2(CC1)CCN(C(=O)c1ccnc(Nc3ccccc3)n1)CC2 [Embodiment L-80, (9-(6-(phenylamino)picolinoyl)-3,9-diazaspiro[5.5]undecan-3-yl)(2-(phenylamino)pyrimidin-4-yl)methanone] |  |
| 40.6 | 5.9 | Cc1[nH]c2ccccc2c1C(=O)N1CC2CN(C(=O)c3cccc(-c4nc5ccccc5[nH]4)n3)CC2C1 [Embodiment L-71, (5-(6-(1H-benzo[d]imidazol-2-yl)picolinoyl)hexahydropyrrolo[3,4-c]pyrrol-2(1H)-yl)(2-methyl-1H-indol-3-yl)methanone] |  |

The next lines start with the molecule.

| Compound | Kd [µM] | Rmax (RU) | binding activity compared with positive reference compound BT-11 |
| --- | --- | --- | --- |
| O=C(c1cccc(-c2nc3ccccc3[nH]2)n1)N1CCC(c2nc3ccccc3[nH]2)CC1 [Embodiment L-57, (4-(1H-benzo[d]imidazol-2-yl)piperidin-1-yl)(6-(1H-benzo[d]imidazol-2-yl)pyridin-2-yl)methanone] | 8.02 | 8 |  |
| O=C(c1cccc(-c2nc3ccccc3[nH]2)n1)N1CCC2(CC1)CCN(C(=O)c1cccc(-c3nc4ccccc4[nH]3)n1)CC2 [Embodiment L-9, (3,9-diazaspiro[5.5]undecane-3,9-diyl)bis((6-(1H-benzo[d]imidazol-2-yl)pyridin-2-yl)methanone)] | 3.44 | 3.9 | better binding activities than the positive reference compound BT-11 |
| O=C(c1ccc(-c2nc3ccccc3[nH]2)nc1)N1CCC2(CCN(C(=O)c3cccc(-c4nc5ccccc5[nH]4)n3)C2)C1 [Embodiment L-60, (7-(6-(1H-benzo[d]imidazol-2-yl)nicotinoyl)-2,7-diazaspiro[4.4]nonan-2-yl)(6-(1H-benzo[d]imidazol-2-yl)pyridin-2-yl)methanone] | 27.4 | 3.6 |  |
| CCCCOc1ccc(C(=O)NC2CCN(C(=O)c3cccc(-c4cn5ccccc5n4)c3)CC2)cc1 [Embodiment L-107, 4-Butoxy-N-(1-(3-(imidazo[1,2-a]pyridin-2-yl)benzoyl)piperidin-4-yl)benzamide] | 6.19 | 4.5 |  |
| O=C(c1cccc(-c2nc3ccccc3[nH]2)n1)N1CC2CC1CN2C(=O)c1ccnc(N2CCOCC2)n1 [Embodiment L-18, (5-(6-(1H-benzo[d]imidazol-2-yl)picolinoyl)-2,5-diazabicyclo[2.2.1]heptan-2-yl)(2-morpholinopyrimidin-4-yl)methanone] | 127 | 5.2 |  |
| O=C(NC1CCN(C(=O)c2cccc(-c3nc4ccccc4[nH]3)n2)CC1)c1ccnc(Nc2ccccc2)n1 [Embodiment L-19] | 25.3 | 9.7 |  |
| O=C(NC1C2CN(C(=O)c3cccc(-c4nc5ccccc5[nH]4)n3)CC21)c1cccc(Nc2ccccn2)n1 [Embodiment L-52, N-(3-(6-(1H-benzo[d]imidazol-2-yl)picolinoyl)-3-azabicyclo[3.1.0]hexan-6-yl)-6-(pyridin-2-ylamino)picolinamide] | 2.83 | 3.9 | better binding activities than the positive reference compound BT-11 |
| Cc1ccncc1C(=O)N1CC2CN(C(=O)c3cccc(-c4nc5ccccc5[nH]4)n3)CC2C1 [Embodiment L-123, (5-(6-(1Hbenzo[d]imidazol-2-yl)picolinoyl)hexahydropyrrolo[3,4-c]pyrrol-2(1H)-yl)(4-methylpyridin-3-yl)methanone] | 18.3 | 3.9 |  |
| O=C(c1ccnc(Nc2ccccc2)n1)N1CC2CN(C(=O)c3ccnc(Nc4ccccc4)n3)CC2C1 [Embodiment L-83] | 53.7 | 9.6 |  |
| O=C(NC1C2CN(C(=O)c3cccc(-c4nc5ccccc5[nH]4)n3)CC21)c1ccnc(N2CCOCC2)n1 [Embodiment L-14, N-(3-(6-(1H-benzo[d]imidazol-2-yl)picolinoyl)-3-azabicyclo[3.1.0]hexan-6-yl)-2-morpholinopyrimidine-4-carboxamide] | 21.1 | 7.1 |  |
| Cc1ccc(C(=O)N2CC3C(C2)C3NC(=O)c2cccc(-c3nc4ccccc4[nH]3)n2)cc1NC1=CC(=O)c2ccccc2C1=O [Embodiment L-91] | 1.71 | 5.2 |  |
| O=C(c1ccnc(Nc2ccccn2)c1)N1CC2CN(C(=O)c3cccc(-c4cn5ccccc5n4)n3)CC2C1 [Embodiment L-54, (5-(6-(imidazo[1,2-a]pyridin-2-yl]picolinoyl)hexahydropyrrolo[3,4-c]pyrrol-2(1H)-yl)(2-(pyridin-2-ylamino)pyridin-4-yl)methanone] | 27.8 | 8.4 |  |
